pEC50: −log10 of the molar value.
The molecules below were run on HepG2 (assay: Hepatoprotective activity in human HepG2 cells assessed as inhibition of H2O2- induced oxidative damage after 3 hrs by leucocrstal violet dye treated 1 hr before H2O2 challenge).
Format: functional, cell-based

**Q.** With `C=C1CC=C[C@]2(C)C[C@]3(O)OC(=O)C(C)C3=C[C@@H]12` (some centres undefined) [HYDROXYLINDESTENOLIDE] as the molecule, how does the pEC50 read?
**A.** The pEC50 was 4.37.

**Q.** How did the pEC50 turn out when `CC1=CC[C@@H](O)[C@]2(C)CC3(O)OC(=O)C(C)=C3[C@H](O)[C@@H]12` (some centres undefined) [LINDERAGALACTONE E] was run?
**A.** Its pEC50 is 4.17.

**Q.** How did the pEC50 turn out when `C/C1=C\CCC2=C[C@@H](OC2=O)c2c(C)coc2C1` [LINDERALACTONE] was run?
**A.** The pEC50 was 4.01.

**Q.** How did the pEC50 turn out when `C/C1=C\CC[C@]23O[C@H]2[C@@H](OC3=O)c2c(C)coc2C1` [LINDERANE] was run?
**A.** The pEC50 was 3.78.
